Data published in PubChem BioAssay AID1845208 (Molecular Pharmacology Branch, DTP, NCI, 2023).

System: NCI-H196 SCLC complex tumor spheroid viability
Experiment: Anticancer human tumor NCI-H196 cell line growth inhibition;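 also: spheroids exposed to compounds for 7 days before readout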;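 as to viability, T/C: 100% = DMSO vehicle control wells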
Settings: for IC50: curve of first compound; for viability, T/C: stronger effect = lower value
Procedure, shortened: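 Complex tumor spheroids combined malignant cells with endothelial cells and mesenchymal stem cells. DNA-damaging drugs and DNA repair inhibitors were tested alone and in combination, at half-log dilutions down from clinical Cmax (top 10 microM if Cmax unknown), 0.25% DMSO final.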

[1] = second compound 0.003 µM, first compound 0.0316 µM
[2] = second compound 0.003 µM, first compound 0.1 µM
[3] = second compound 0.003 µM, first compound 0.316 µM
[4] = second compound 0.003 µM, first compound 1 µM
[5] = second compound 0.003 µM, first compound 3.16 µM
[6] = second compound 0.003 µM, first compound 10 µM
[7] = second compound 0.00949 µM, first compound 0.0316 µM
[8] = second compound 0.00949 µM, first compound 0.1 µM
[9] = second compound 0.00949 µM, first compound 0.316 µM
[10] = second compound 0.00949 µM, first compound 1 µM
[11] = second compound 0.00949 µM, first compound 3.16 µM
[12] = second compound 0.00949 µM, first compound 10 µM
[13] = second compound 0.03 µM, first compound 0.0316 µM
[14] = second compound 0.03 µM, first compound 0.1 µM
[15] = second compound 0.03 µM, first compound 0.316 µM
[16] = second compound 0.03 µM, first compound 1 µM
[17] = second compound 0.03 µM, first compound 3.16 µM
[18] = second compound 0.03 µM, first compound 10 µM
[19] = second compound 0.0949 µM, first compound 0.0316 µM
[20] = second compound 0.0949 µM, first compound 0.1 µM
[21] = second compound 0.0949 µM, first compound 0.316 µM
[22] = second compound 0.0949 µM, first compound 1 µM
[23] = second compound 0.0949 µM, first compound 3.16 µM
[24] = second compound 0.0949 µM, first compound 10 µM
[25] = second compound 0.3 µM, first compound 0.0316 µM
[26] = second compound 0.3 µM, first compound 0.1 µM
[27] = second compound 0.3 µM, first compound 0.316 µM
[28] = second compound 0.3 µM, first compound 1 µM
[29] = second compound 0.3 µM, first compound 3.16 µM
[30] = second compound 0.3 µM, first compound 10 µM
[31] = second compound 30 pM, first compound 0.00949 µM
[32] = second compound 30 pM, first compound 0.03 µM
[33] = second compound 30 pM, first compound 0.0949 µM
[34] = second compound 30 pM, first compound 0.3 µM
[35] = second compound 30 pM, first compound 0.949 µM
[36] = second compound 30 pM, first compound 3 µM
[37] = second compound 94.9 pM, first compound 0.00949 µM
[38] = second compound 94.9 pM, first compound 0.03 µM
[39] = second compound 94.9 pM, first compound 0.0949 µM
[40] = second compound 94.9 pM, first compound 0.3 µM
[41] = second compound 94.9 pM, first compound 0.949 µM
[42] = second compound 94.9 pM, first compound 3 µM
[43] = second compound 0.0003 µM, first compound 0.00949 µM
[44] = second compound 0.0003 µM, first compound 0.03 µM
[45] = second compound 0.0003 µM, first compound 0.0949 µM
[46] = second compound 0.0003 µM, first compound 0.3 µM
[47] = second compound 0.0003 µM, first compound 0.949 µM
[48] = second compound 0.0003 µM, first compound 3 µM
[49] = second compound 0.000949 µM, first compound 0.00949 µM
[50] = second compound 0.000949 µM, first compound 0.03 µM
[51] = second compound 0.000949 µM, first compound 0.0949 µM
[52] = second compound 0.000949 µM, first compound 0.3 µM
[53] = second compound 0.000949 µM, first compound 0.949 µM
[54] = second compound 0.000949 µM, first compound 3 µM
[55] = second compound 0.003 µM, first compound 0.00949 µM
[56] = second compound 0.003 µM, first compound 0.03 µM
[57] = second compound 0.003 µM, first compound 0.0949 µM
[58] = second compound 0.003 µM, first compound 0.3 µM
[59] = second compound 0.003 µM, first compound 0.949 µM
[60] = second compound 0.003 µM, first compound 3 µM

SMILES: CC(C)n1c(=O)n(C)c2cnc3cc(F)c(-c4ccc(OCCCN5CCCCC5)nc4)cc3c21 + CC[C@@]1(O)C(=O)OCc2c1cc1n(c2=O)Cc2cc3c(CN(C)C)c(O)ccc3nc2-1
- IC50 (second compound 0.003 µM): > 10 µM
- IC50 (second compound 0.00949 µM): > 10 µM
- IC50 (second compound 0.03 µM): > 10 µM
- IC50 (second compound 0.0949 µM): > 10 µM
- IC50 (second compound 0.3 µM): > 10 µM
- viability, T/C [1]: 102%
- viability, T/C [2]: 106%
- viability, T/C [3]: 105%
- viability, T/C [4]: 107%
- viability, T/C [5]: 110%
- viability, T/C [6]: 113%
- viability, T/C [7]: 105%
- viability, T/C [8]: 107%
- viability, T/C [9]: 109%
- viability, T/C [10]: 112%
- viability, T/C [11]: 110%
- viability, T/C [12]: 103%
- viability, T/C [13]: 102%
- viability, T/C [14]: 102%
- viability, T/C [15]: 104%
- viability, T/C [16]: 101%
- viability, T/C [17]: 95.9%
- viability, T/C [18]: 87.9%
- viability, T/C [19]: 116%
- viability, T/C [20]: 113%
- viability, T/C [21]: 104%
- viability, T/C [22]: 86.5%
- viability, T/C [23]: 74.9%
- viability, T/C [24]: 71.9%
- viability, T/C [25]: 110%
- viability, T/C [26]: 107%
- viability, T/C [27]: 108%
- viability, T/C [28]: 88.1%
- viability, T/C [29]: 78.5%
- viability, T/C [30]: 71.4%

SMILES: COc1ccc([C@@H](O)c2cc(-c3ncnc4cc(N5CCOCC5)ccc34)c(F)cc2Cl)nn1 + CC[C@@]1(O)C(=O)OCc2c1cc1n(c2=O)Cc2cc3c(CN(C)C)c(O)ccc3nc2-1
- IC50 (second compound 0.003 µM): > 10 µM
- IC50 (second compound 0.00949 µM): > 10 µM
- IC50 (second compound 0.03 µM): 5.95 µM
- IC50 (second compound 0.0949 µM): 2.63 µM
- IC50 (second compound 0.3 µM): 2.61 µM
- viability, T/C [1]: 100%
- viability, T/C [2]: 99.6%
- viability, T/C [3]: 90.8%
- viability, T/C [4]: 82.3%
- viability, T/C [5]: 69.2%
- viability, T/C [6]: 55.2%
- viability, T/C [7]: 98%
- viability, T/C [8]: 97.1%
- viability, T/C [9]: 95.5%
- viability, T/C [10]: 88.9%
- viability, T/C [11]: 65.7%
- viability, T/C [12]: 52.8%
- viability, T/C [13]: 93.5%
- viability, T/C [14]: 92.3%
- viability, T/C [15]: 88.1%
- viability, T/C [16]: 72.5%
- viability, T/C [17]: 58.6%
- viability, T/C [18]: 43.5%
- viability, T/C [19]: 99.8%
- viability, T/C [20]: 102%
- viability, T/C [21]: 93.5%
- viability, T/C [22]: 70.2%
- viability, T/C [23]: 46.2%
- viability, T/C [24]: 39.5%
- viability, T/C [25]: 107%
- viability, T/C [26]: 104%
- viability, T/C [27]: 88.8%
- viability, T/C [28]: 71.9%
- viability, T/C [29]: 43.1%
- viability, T/C [30]: 37.1%

SMILES: CNCc1ccc(-c2cc(-c3nc(-c4ccc(S(=O)(=O)C(C)C)cc4)cnc3N)on2)cc1 + COc1cc2c(cc1O)CCNC21CSC2c3c(OC(C)=O)c(C)c4c(c3C(COC1=O)N1C(O)C3Cc5cc(C)c(OC)c(O)c5C(C21)N3C)OCO4
- IC50 (second compound 30 pM): > 3 µM
- IC50 (second compound 94.9 pM): > 3 µM
- IC50 (second compound 0.0003 µM): > 3 µM
- IC50 (second compound 0.000949 µM): > 3 µM
- IC50 (second compound 0.003 µM): < 0.00949 µM
- viability, T/C [31]: 107%
- viability, T/C [32]: 99%
- viability, T/C [33]: 104%
- viability, T/C [34]: 103%
- viability, T/C [35]: 98%
- viability, T/C [36]: 91.4%
- viability, T/C [37]: 105%
- viability, T/C [38]: 107%
- viability, T/C [39]: 103%
- viability, T/C [40]: 107%
- viability, T/C [41]: 96.4%
- viability, T/C [42]: 95.9%
- viability, T/C [43]: 112%
- viability, T/C [44]: 112%
- viability, T/C [45]: 112%
- viability, T/C [46]: 105%
- viability, T/C [47]: 96.4%
- viability, T/C [48]: 93.3%
- viability, T/C [49]: 99.2%
- viability, T/C [50]: 103%
- viability, T/C [51]: 103%
- viability, T/C [52]: 94.3%
- viability, T/C [53]: 91.3%
- viability, T/C [54]: 86.6%
- viability, T/C [55]: 9.83%
- viability, T/C [56]: 26.7%
- viability, T/C [57]: 27.7%
- viability, T/C [58]: 13.2%
- viability, T/C [59]: 18.2%
- viability, T/C [60]: 40.3%

SMILES: Cn1ncnc1[C@H]1c2n[nH]c(=O)c3cc(F)cc(c23)N[C@@H]1c1ccc(F)cc1 + COc1cc2c(cc1O)CCNC21CSC2c3c(OC(C)=O)c(C)c4c(c3C(COC1=O)N1C(O)C3Cc5cc(C)c(OC)c(O)c5C(C21)N3C)OCO4
- IC50 (second compound 30 pM): > 3 µM
- IC50 (second compound 94.9 pM): > 3 µM
- IC50 (second compound 0.0003 µM): > 3 µM
- IC50 (second compound 0.000949 µM): > 3 µM
- IC50 (second compound 0.003 µM): < 0.00949 µM
- viability, T/C [31]: 100%
- viability, T/C [32]: 99.3%
- viability, T/C [33]: 98.6%
- viability, T/C [34]: 97%
- viability, T/C [35]: 94.6%
- viability, T/C [36]: 92.4%
- viability, T/C [37]: 99.3%
- viability, T/C [38]: 99.3%
- viability, T/C [39]: 98.8%
- viability, T/C [40]: 98.6%
- viability, T/C [41]: 92.7%
- viability, T/C [42]: 99%
- viability, T/C [43]: 102%
- viability, T/C [44]: 97.5%
- viability, T/C [45]: 101%
- viability, T/C [46]: 93.5%
- viability, T/C [47]: 92.2%
- viability, T/C [48]: 87.7%
- viability, T/C [49]: 92.3%
- viability, T/C [50]: 85.1%
- viability, T/C [51]: 82%
- viability, T/C [52]: 92.4%
- viability, T/C [53]: 87%
- viability, T/C [54]: 71.2%
- viability, T/C [55]: 6.21%
- viability, T/C [56]: 7.26%
- viability, T/C [57]: 4.58%
- viability, T/C [58]: 3.69%
- viability, T/C [59]: 2.82%
- viability, T/C [60]: 1.01%

SMILES: O=C(c1cc(Cc2n[nH]c(=O)c3ccccc23)ccc1F)N1CCN(C(=O)C2CC2)CC1 + COc1cc2c(cc1O)CCNC21CSC2c3c(OC(C)=O)c(C)c4c(c3C(COC1=O)N1C(O)C3Cc5cc(C)c(OC)c(O)c5C(C21)N3C)OCO4
- IC50 (second compound 30 pM): > 30 µM
- IC50 (second compound 94.9 pM): > 30 µM
- IC50 (second compound 0.0003 µM): > 30 µM
- IC50 (second compound 0.000949 µM): > 30 µM
- IC50 (second compound 0.003 µM): < 0.0949 µM
- viability, T/C [33]: 107%
- viability, T/C [34]: 105%
- viability, T/C [35]: 101%
- viability, T/C [36]: 98.9%
- viability, T/C (second compound 30 pM, first compound 9.49 µM): 85.5%
- viability, T/C (second compound 30 pM, first compound 30 µM): 67.2%
- viability, T/C [39]: 104%
- viability, T/C [40]: 102%
- viability, T/C [41]: 102%
- viability, T/C [42]: 93.7%
- viability, T/C (second compound 94.9 pM, first compound 9.49 µM): 91.5%
- viability, T/C (second compound 94.9 pM, first compound 30 µM): 62.7%
- viability, T/C [45]: 99.6%
- viability, T/C [46]: 105%
- viability, T/C [47]: 99.5%
- viability, T/C [48]: 92%
- viability, T/C (second compound 0.0003 µM, first compound 9.49 µM): 84.3%
- viability, T/C (second compound 0.0003 µM, first compound 30 µM): 66%
- viability, T/C [51]: 86.4%
- viability, T/C [52]: 86.9%
- viability, T/C [53]: 80.7%
- viability, T/C [54]: 78.5%
- viability, T/C (second compound 0.000949 µM, first compound 9.49 µM): 68.9%
- viability, T/C (second compound 0.000949 µM, first compound 30 µM): 54.4%
- viability, T/C [57]: 3.15%
- viability, T/C [58]: 6.44%
- viability, T/C [59]: 3.39%
- viability, T/C [60]: 1.87%
- viability, T/C (second compound 0.003 µM, first compound 9.49 µM): 0.89%
- viability, T/C (second compound 0.003 µM, first compound 30 µM): 1.4%
